Experimental data from patent US12435059B2, “AMP-activated protein kinase inhibitors and methods of making and using the same” (The Regents of the University of Colorado, priority 2019, dated 2025).
Where two headings read alike, the source gives them in different places.

Tests used:
Assay in all cases: biochemical
Assay type in all cases: binding
[1] = target: 468 kinases (Homo sapiens, UniProt Q16288); settings: TRKC; read-out: % Inhibition @ 100 nM
[2] = target: 468 kinases (Homo sapiens, UniProt P42685); settings: FRK; read-out: % Inhibition @ 100 nM
[3] = target: 468 kinases (Homo sapiens, UniProt P00519, M351T); settings: ABL1 (M351T)-phosphorylated; read-out: % Inhibition @ 100 nM
[4] = target: 468 kinases (Homo sapiens, UniProt O95835); settings: LATS1; read-out: % Inhibition @ 100 nM
[5] = target: 468 kinases (Homo sapiens, UniProt P10721, A829P); settings: KIT(A829P); read-out: % Inhibition @ 100 nM
[6] = target: 468 kinases (Homo sapiens, UniProt P00533, G719C); settings: EGFR(G719C); read-out: % Inhibition @ 100 nM
[7] = target: 468 kinases (Homo sapiens, UniProt P51956); settings: NEK3; read-out: % Inhibition @ 100 nM
[8] = target: 468 kinases (Homo sapiens, UniProt P57078); settings: RIPK4; read-out: % Inhibition @ 100 nM
[9] = target: 468 kinases (Homo sapiens, UniProt P00533, L861Q); settings: EGFR(L861Q); read-out: % Inhibition @ 100 nM
[10] = target: 468 kinases (Homo sapiens, UniProt P27448); settings: MARK3; read-out: % Inhibition @ 100 nM
[11] = target: 468 kinases (Homo sapiens, UniProt Q9NRM7); settings: LATS2; read-out: % Inhibition @ 100 nM
[12] = target: 468 kinases (Homo sapiens, UniProt O00750); settings: PIK3C2B; read-out: % Inhibition @ 100 nM
[13] = target: 468 kinases (Homo sapiens, UniProt P00519, Q252H); settings: read-out: % Inhibition @ 100 nM
[14] = target: 468 kinases (Homo sapiens, UniProt Q9BYP7); settings: WNK3; read-out: % Inhibition @ 100 nM
[15] = target: 468 kinases (Homo sapiens, UniProt P15735); settings: PHKG2; read-out: % Inhibition @ 100 nM
[16] = target: 468 kinases (Homo sapiens, UniProt Q9BXA7); settings: TSSK1B; read-out: % Inhibition @ 100 nM
[17] = target: 468 kinases (Homo sapiens, UniProt Q14289); settings: PYK2; read-out: % Inhibition @ 100 nM
[18] = target: 468 kinases (Homo sapiens, UniProt P16234); settings: PDGFRA; read-out: % Inhibition @ 100 nM
[19] = target: 468 kinases (Homo sapiens, UniProt P23443); settings: S6K1; read-out: % Inhibition @ 100 nM
[20] = target: 468 kinases (Homo sapiens, UniProt O75385); settings: ULK1; read-out: % Inhibition @ 100 nM
[21] = target: 468 kinases (Homo sapiens, UniProt Q96SB4); settings: SRPK1; read-out: % Inhibition @ 100 nM
[22] = target: 468 kinases (Homo sapiens, UniProt Q9Y3S1); settings: WNK2; read-out: % Inhibition @ 100 nM
[23] = target: 468 kinases (Homo sapiens, UniProt Q9UQM7); settings: CAMK2A; read-out: % Inhibition @ 100 nM
[24] = target: 468 kinases (Homo sapiens, UniProt P43405); settings: SYK; read-out: % Inhibition @ 100 nM
[25] = target: 468 kinases (Homo sapiens, UniProt O75460); settings: ERN1; read-out: % Inhibition @ 100 nM
[26] = target: 468 kinases (Homo sapiens, UniProt P49840); settings: GSK3A; read-out: % Inhibition @ 100 nM
[27] = target: 468 kinases (Homo sapiens, UniProt P23458); settings: JAK1(JH1domain-catalytic); read-out: % Inhibition @ 100 nM
[28] = target: 468 kinases (Homo sapiens, UniProt Q86Y07); settings: VRK2; read-out: % Inhibition @ 100 nM
[29] = target: 468 kinases (Homo sapiens, UniProt P35916); settings: FLT4; read-out: % Inhibition @ 100 nM
[30] = target: 468 kinases (Homo sapiens, UniProt P22455); settings: FGFR4; read-out: % Inhibition @ 100 nM
[31] = target: 468 kinases (Homo sapiens, UniProt Q02156); settings: PRKCE; read-out: % Inhibition @ 100 nM
[32] = target: 468 kinases (Homo sapiens, UniProt P10721, V559D); settings: KIT(V559D); read-out: % Inhibition @ 100 nM

Structure (SMILES) | inhibition at 0.1 µM [1] | inhibition at 0.1 µM [2] | inhibition at 0.1 µM [3] | inhibition at 0.1 µM [4] | inhibition at 0.1 µM [5] | inhibition at 0.1 µM [6] | inhibition at 0.1 µM [7] | inhibition at 0.1 µM [8] | inhibition at 0.1 µM [9] | inhibition at 0.1 µM [10] | inhibition at 0.1 µM [11] | inhibition at 0.1 µM [12] | inhibition at 0.1 µM ([13]; ABL1 (Q252H)-nonphosphorylated) | inhibition at 0.1 µM ([13]; ABL1 (Q252H)-phosphorylated) | inhibition at 0.1 µM [14] | inhibition at 0.1 µM [15] | inhibition at 0.1 µM [16] | inhibition at 0.1 µM [17] | inhibition at 0.1 µM [18] | inhibition at 0.1 µM [19] | other results
CCN(CC)CCNC(=O)c1c(C)[nH]c(/C=C2\C(=O)Nc3ccc(CCC(N)=O)cc32)c1C [Compound No. 16, (Z)-5-((5-(3-Amino-3-oxopropyl)-2-oxoindolin-3-ylidene)methyl)-N-(2-(diethylamino)ethyl)-2,4-dimethyl-1H-pyrrole-3-carboxamide] | 63% | 38% | 22% | 17% | 35% | 9% | 45% | 14% | 4% | 0% | 13% | 24% | 55% | 54% | 7% | 97.2% | 4% | 7% | 55% | 33% | inhibition at 0.1 µM [20]: 56%; inhibition at 0.1 µM [21]: 78%; inhibition at 0.1 µM [22]: 13%; inhibition at 0.1 µM [23]: 45%; inhibition at 0.1 µM [24]: 0%; inhibition at 0.1 µM [25]: 10%; inhibition at 0.1 µM [26]: 10%; inhibition at 0.1 µM [27]: 10%; inhibition at 0.1 µM [28]: 39%; inhibition at 0.1 µM [29]: 56%; inhibition at 0.1 µM [30]: 1%; inhibition at 0.1 µM [31]: 5%; inhibition at 0.1 µM [32]: 0%
CCN(CC)CCNC(=O)c1c(C)[nH]c(/C=C2\C(=O)Nc3ccc(CCO)cc32)c1C [Compound No. 10, (Z)—N-(2-(Diethylamino)ethyl)-5-((5-(2-hydroxyethyl)-2-oxoindolin-3-ylidene)methyl)-2,4-dimethyl-1H-pyrrole-3-carboxamide] | 60% | 0% | 24% | 43% | 0% | 32% | 50% | 12% | 39% | 0% | 4% | 0% | 33% | 19% | 9% | 94.4% | 0% | 31% | 84% | 37% | inhibition at 0.1 µM [20]: 58%; inhibition at 0.1 µM [21]: 60%; inhibition at 0.1 µM [22]: 0%; inhibition at 0.1 µM [23]: 6%; inhibition at 0.1 µM [24]: 16%; inhibition at 0.1 µM [25]: 0%; inhibition at 0.1 µM [26]: 3%; inhibition at 0.1 µM [27]: 0%; inhibition at 0.1 µM [28]: 0%; inhibition at 0.1 µM [29]: 27%; inhibition at 0.1 µM [30]: 0%; inhibition at 0.1 µM [31]: 0%; inhibition at 0.1 µM [32]: 88%
